The source of these data is publication PMC8882856, “The affinity and selectivity of α‐adrenoceptor antagonists, antidepressants and antipsychotics for the human α2A, α2B, and α2C‐adrenoceptors and comparison with human α1 and β‐adrenoceptors” (Pharmacology Research & Perspectives, 2022).

The target of assay [1] is T1, human β1‐adrenoceptor (Homo sapiens, UniProt P08588). The note with it: for Log KD β1: mean ± s.e.mean.
For assay [2], the target named is T2, human α2A‐adrenoceptor (Homo sapiens, UniProt P08913).
T2 sequence (P08913 1-465): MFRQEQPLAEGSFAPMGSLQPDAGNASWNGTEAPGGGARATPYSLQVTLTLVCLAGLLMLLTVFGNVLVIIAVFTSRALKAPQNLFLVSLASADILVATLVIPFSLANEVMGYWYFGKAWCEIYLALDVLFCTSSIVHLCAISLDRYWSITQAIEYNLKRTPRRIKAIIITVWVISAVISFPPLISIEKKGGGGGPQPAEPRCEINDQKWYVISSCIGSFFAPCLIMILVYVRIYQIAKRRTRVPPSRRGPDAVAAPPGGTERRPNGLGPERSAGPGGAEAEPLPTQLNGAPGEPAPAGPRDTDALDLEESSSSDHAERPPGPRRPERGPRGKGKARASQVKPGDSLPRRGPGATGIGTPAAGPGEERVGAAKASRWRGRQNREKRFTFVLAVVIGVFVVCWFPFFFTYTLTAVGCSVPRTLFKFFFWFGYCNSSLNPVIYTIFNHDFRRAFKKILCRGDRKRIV

Assay [3] concerns the target T3, human α2C‐adrenoceptor (Homo sapiens, UniProt P18825).
T3 sequence (P18825 1-462): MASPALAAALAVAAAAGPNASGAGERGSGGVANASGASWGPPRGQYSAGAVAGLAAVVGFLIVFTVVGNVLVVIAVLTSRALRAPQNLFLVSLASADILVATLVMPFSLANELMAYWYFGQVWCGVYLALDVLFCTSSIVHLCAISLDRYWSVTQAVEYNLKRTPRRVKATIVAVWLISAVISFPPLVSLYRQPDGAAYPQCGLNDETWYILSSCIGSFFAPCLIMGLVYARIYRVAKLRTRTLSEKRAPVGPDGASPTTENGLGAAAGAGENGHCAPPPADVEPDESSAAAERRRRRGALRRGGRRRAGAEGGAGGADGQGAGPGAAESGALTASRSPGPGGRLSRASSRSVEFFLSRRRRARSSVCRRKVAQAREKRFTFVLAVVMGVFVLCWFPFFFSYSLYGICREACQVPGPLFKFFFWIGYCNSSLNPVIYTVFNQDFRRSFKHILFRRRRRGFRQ
The experiment in a line: ^3H‐rauwolscine whole cell competition binding, CHO‐α2C cells. Conditions: for Selectivity ratio α2A vs α2C (higher affinity for α2C) / Selectivity ratio α2B vs α2C (higher affinity for α2C): ratio of KD values.

In assay [4] the target is T4, human α2B‐adrenoceptor (Homo sapiens, UniProt P18089).
T4 sequence (P18089 1-450): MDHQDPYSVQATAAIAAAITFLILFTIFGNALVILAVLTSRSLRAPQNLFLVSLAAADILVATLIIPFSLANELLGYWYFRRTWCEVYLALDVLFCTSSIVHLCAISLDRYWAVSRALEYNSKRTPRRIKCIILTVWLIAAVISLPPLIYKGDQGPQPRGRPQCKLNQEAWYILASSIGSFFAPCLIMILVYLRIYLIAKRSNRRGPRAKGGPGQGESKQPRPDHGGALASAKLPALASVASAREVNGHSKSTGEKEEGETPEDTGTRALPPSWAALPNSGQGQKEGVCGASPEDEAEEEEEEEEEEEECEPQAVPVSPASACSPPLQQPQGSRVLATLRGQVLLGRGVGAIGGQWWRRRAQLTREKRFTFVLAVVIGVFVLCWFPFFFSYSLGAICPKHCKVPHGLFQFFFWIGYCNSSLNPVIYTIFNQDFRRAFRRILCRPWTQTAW

In assay [5] the target is human β2‐adrenoceptor (Homo sapiens, UniProt P07550). The class given is binding.
The target in assay [6] is T3, human α2C‐adrenoceptor.
Assay [7] deals with T2, human α2A‐adrenoceptor. In words: ^3H‐rauwolscine whole cell competition binding, CHO‐α2A cells. Conditions: for Selectivity ratio α2A vs α2B (higher affinity for α2A): ratio of KD values.
Assay [8] has as its target T2, human α2A‐adrenoceptor. The experiment in a line: ^3H‐RX821002 whole cell competition binding, CHO‐α2A cells.
Assay [9] has as its target T2, human α2A‐adrenoceptor. In words: cell-based.
Assay [10] addresses T4, human α2B‐adrenoceptor. The experiment in a line: ^3H‐rauwolscine whole cell competition binding, CHO‐α2B cells.
Assay [11] addresses human α2A‐adrenoceptors. Conditions: cited from earlier work.
The target of assay [12] is T1, human β1‐adrenoceptor. The experiment in a line: cell-based.
Assay [13] addresses human α1A‐adrenoceptor. Also noted: method as in PMID 32608144. Conditions: identical whole cell method; ref [33]; read-out: α1A‐adrenoceptor affinity; cited from earlier work.
Assay [14] concerns the target T3, human α2C‐adrenoceptor. In words: cell-based.
Assay [15] addresses T4, human α2B‐adrenoceptor. In words: cell-based.
The mark [16] stands for this setting: ^3H‐CGP12177 whole cell binding, log values, ^app = apparent KD, 'no binding to' = log top concentration.
The mark [17] stands for this setting: ^3H‐CGP12177 whole cell binding, log values, mean ± s.e.mean, ^app = apparent KD, 'no binding to' = log top concentration.
The mark [18] stands for this setting: this study, read-out: β2‐adrenoceptor affinity.

Read-outs that look alike come from different tables or passages of the source.

Chain of human β2‐adrenoceptor (P07550 whole entry): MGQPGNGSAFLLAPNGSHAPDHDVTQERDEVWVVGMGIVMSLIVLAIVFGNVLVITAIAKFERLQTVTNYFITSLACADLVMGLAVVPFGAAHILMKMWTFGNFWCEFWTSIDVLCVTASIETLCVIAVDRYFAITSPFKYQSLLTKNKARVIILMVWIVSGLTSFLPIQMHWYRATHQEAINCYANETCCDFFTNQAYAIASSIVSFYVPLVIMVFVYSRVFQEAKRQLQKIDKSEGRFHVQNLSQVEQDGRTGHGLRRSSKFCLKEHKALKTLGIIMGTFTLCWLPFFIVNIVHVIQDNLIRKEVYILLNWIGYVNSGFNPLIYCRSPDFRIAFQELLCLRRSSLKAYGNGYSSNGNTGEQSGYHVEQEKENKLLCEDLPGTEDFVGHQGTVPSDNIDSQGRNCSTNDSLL
T1 sequence (P08588 whole entry): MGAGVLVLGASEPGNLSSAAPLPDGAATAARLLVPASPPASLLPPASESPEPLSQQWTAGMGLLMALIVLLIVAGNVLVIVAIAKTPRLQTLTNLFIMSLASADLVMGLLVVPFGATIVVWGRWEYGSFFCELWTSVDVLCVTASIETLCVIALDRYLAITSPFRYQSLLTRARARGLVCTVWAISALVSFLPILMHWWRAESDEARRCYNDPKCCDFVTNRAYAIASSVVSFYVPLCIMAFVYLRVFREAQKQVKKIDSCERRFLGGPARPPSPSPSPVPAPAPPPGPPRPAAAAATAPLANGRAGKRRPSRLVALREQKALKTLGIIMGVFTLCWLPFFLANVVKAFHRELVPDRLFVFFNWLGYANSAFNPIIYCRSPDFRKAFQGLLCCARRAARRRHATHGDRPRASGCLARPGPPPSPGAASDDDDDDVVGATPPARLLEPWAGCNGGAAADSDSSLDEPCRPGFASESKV

For `COc1ccccc1N1CCN(CC2CN3C(=O)N(C)c4ccccc4C3=N2)CC1` (stereo not drawn) [2‐MPMDQ], in [1] (^3H‐CGP12177, log value), the “IC50 (log) β1, IC50>top concentration used” value (from here on “IC50 (log) β1”) is given as “IC50>−5”. Also, the figures for the Kd in [2], in assay [4] and in assay [6] were 162 nM, 1150 nM and 31.6 nM, respectively. Moreover, in assay [3], the “Selectivity ratio α2A vs α2C (higher affinity for α2C)” value (“Selectivity ratio α2A vs α2C” below) amounted to 5.1. For the same compound, in assay [3], the “Selectivity ratio α2B vs α2C (higher affinity for α2C)” value is recorded as 36.3. For the same compound, the “IC50 (log) β2, IC50>top concentration used” value (“IC50 (log) β2” below) in assay [5] (^3H‐CGP12177, log value) is given as “IC50>−5”. Besides, the “Selectivity ratio α2A vs α2B (higher affinity for α2A)” value in [7] is recorded as 7.1.

Consider `COc1ccccc1OCCNCC(O)COc1cccc2[nH]c3ccccc3c12` (stereo not drawn) [carvedilol], for which the Kd in [8] is 263 nM; in assay [9] it was 288 nM.

In the case of `CCS(=O)(=O)N1CCC[C@@H]2CN3CCc4cc(OC)ccc4[C@@H]3C[C@@H]21` [RS79948], the “Log KD β1” value in [1] (setting [16]) is given as −3.84 ± 0.05. Besides, the Kd in assay [2] is 1.17 nM; in assay [4] it was 2.69 nM; in [6], 0.437 nM. Besides, in [3], the “Selectivity ratio α2A vs α2C” value is reported as 2.7. Also, the “Selectivity ratio α2B vs α2C (higher affinity for α2C)” value in assay [3] is 6.2. In assay [5] (^3H‐CGP12177, log value), the “IC50 (log) β2” value is “IC50>−3”. The “Selectivity ratio α2A vs α2B (higher affinity for α2A)” value in [7] stood at 2.3.

With `COc1ccc(NC(=O)N2CCc3c2ccc2ccccc32)cc1N1CCN(C)CC1` [S32212], in assay [1] (^3H‐CGP12177, log value), the “IC50 (log) β1” value is recorded as “IC50>−5”. In addition, the figures for the Kd in [2], in assay [4] and in assay [6] were 240 nM, 15.8 nM and 66.1 nM, respectively. Also, the “selectivity α2B versus α2C” value in [10] is recorded as “less than 5 fold”. In addition, the “Selectivity ratio α2A vs α2B (higher affinity for α2B)” value in [10] (ratio of KD values) was 15.1. Moreover, in assay [10] (ratio of KD values), the “Selectivity ratio α2B vs α2C (higher affinity for α2B)” value is 4.2. Also, the “Selectivity ratio α2A vs α2C” value in assay [3] came out at 3.6. Besides, the “IC50 (log) β2” value in assay [5] (^3H‐CGP12177, log value) is on record as “IC50>−5”.

Regarding `Cc1c[nH]c(=O)n(CCCN2CCN(c3ccccc3OCC(F)(F)F)CC2)c1=O` [RS100329], the “IC50 (log) β1” value in [1] (^3H‐CGP12177, log value) is “IC50>−3”. In addition, the results for the Kd in assay [2], in assay [4] and in assay [6] were 100 nM, 339 nM and 15.1 nM, respectively. Also, in [3], the “Selectivity ratio α2A vs α2C” value stood at 6.6. Besides, the “Selectivity ratio α2B vs α2C (higher affinity for α2C)” value in [3] came to 22.4. Further, the “Log KD β2” value in assay [5] (setting [17]) is −4.77 ± 0.07. Besides, in [7], the “Selectivity ratio α2A vs α2B (higher affinity for α2A)” value was determined as 3.4.

Turning to `CN1CCc2cccc(Cl)c2CC1` [SKF86466], in [10], the “Log KD α2B” value is listed as −6.17 ± 0.047. Besides, the Kd in assay [11] (ref [23], read-out: human α2A‐affinity) is 13 nM; in assay [5] (setting [18]), 250 nM; in [12], 1200 nM; in [7], 513 nM.

Take `O=C1Nc2ccccc2C2=NC(CN3CCN(c4ccccc4)CC3)CN12` (stereo not drawn) [2‐PMDQ]: the “Log KD β1” value in [1] (setting [16]) is reported as “No binding −4”. Moreover, the Kd in [2] is 148 nM; in assay [4], 724 nM; in assay [6], 85.1 nM. Moreover, the “Selectivity ratio α2A vs α2C” value in assay [3] is on record as 1.7. In addition, the “Selectivity ratio α2B vs α2C (higher affinity for α2C)” value in assay [3] amounted to 8.5. Besides, in [5] (^3H‐CGP12177, log value), the “IC50 (log) β2” value was “IC50>−4”. The “Selectivity ratio α2A vs α2B (higher affinity for α2A)” value in assay [7] came out at 4.9.

Regarding `COc1cccc2c1CCC[C@H]2CN(C)CCc1ccc2ccoc2c1.CS(=O)(=O)O` [A80426], the Kd in assay [4] was 302 nM; in assay [6] it was 34.7 nM. For the same compound, in [5] (setting [17]), the “Log KD β2” value is given as −5.88 ± 0.04.

Consider `Cc1nc2n(c(=O)c1CCN1CCC(c3noc4cc(F)ccc34)CC1)CCCC2O` (stereo not drawn) [paliperidone], for which the Kd in [3] was 14 nM; in assay [13] it was 4 nM. Further, the IC50 in [5] (^3H‐CGP12177, log value, read-out: IC50 (log) β2, IC50>top concentration used (converted)) was greater than 31600 nM; in assay [12], greater than 31600 nM.

For the compound `O=C1c2ccccc2CCC1CNCCc1ccc(O)cc1` (stereo not drawn) [HEAT], in assay [1] (^3H‐CGP12177, log value), the “IC50 (log) β1” value was “IC50 ~−4.5”. The Kd in assay [2] is 35.5 nM; in assay [4], 19.1 nM; in assay [6], 8.91 nM. Further, the “Selectivity ratio α2A vs α2B (higher affinity for α2B)” value in assay [10] (ratio of KD values) came to 1.9. In assay [3], the “Selectivity ratio α2A vs α2C” value turned out to be 4.0. The “Selectivity ratio α2B vs α2C (higher affinity for α2C)” value in [3] was determined as 2.1. In [5] (^3H‐CGP12177, log value), the “IC50 (log) β2” value is “IC50>−4”.

For `COc1cc2nc(N3CCN(C(=O)c4ccco4)CC3)nc(N)c2cc1OC` [prazosin], the “Log KD β1” value is reported as “No binding to −4” in assay [1] (setting [16]) and “No binding to -4” in [1] (given as log KD (negative values), 3H-CGP12177 whole cell binding, CHO cells). Moreover, the Kd in [11] (ref [6], read-out: affinity at human α2A‐adrenoceptors) was 16000 nM; in assay [11] (ref [21], [28], read-out: affinity at human α2A‐adrenoceptors), 300 nM; in assay [5] (^3H‐CGP12177 whole cell binding, log values, mean ± s.e.mean, ^app = apparent KD, 'no binding to' = log top concentration, read-out: Log KD β2 (converted)), 7940 nM.

As for `CN1CCN(c2ccc(Nc3c4ccccc4nc4ccccc34)cc2)CC1` [JP1302], in assay [1], the “IC50 (log) β1” value was “IC50>−4”. The “α1A‐adrenoceptor affinity less than α2C affinity” value in assay [3] is 5 fold. In [13], the Kd was 617 nM. Besides, the “Log KD β2” value in assay [5] (setting [17]) was −5.58 ± 0.08.

As for `CN1CCN2c3ncccc3Cc3ccccc3C2C1` (stereo not drawn) [mirtazepine], in [11] (ref [51], read-out: affinity at human α2A receptors), the Kd was 79 to 126 nM.

Regarding `C[C@H](Cc1cc2c(c(C(N)=O)c1)N(CCCO)CC2)NCCOc1ccccc1OCC(F)(F)F` [silodosin], the Kd was 759 nM in [14], 0.25 nM in assay [13], 3240 nM in [9] and roughly 30 nM in assay [5] (setting [18]). The IC50 in assay [10] and in assay [12] was greater than 10000 nM in each case.

`Cc1ccc(Sc2ccccc2N2CCNCC2)c(C)c1` [vortioxetine]: the Kd is 1450 nM in assay [14]; 2340 nM in assay [9]; 178 nM in [5] (setting [18]); 427 nM in assay [12]; 4790 nM in [15]. The “Selectivity ratio α2A vs α2C” value in [3] was determined as 1.6. In addition, the “Selectivity ratio α2B vs α2C (higher affinity for α2C)” value in assay [3] is on record as 3.3. For the same compound, the “Selectivity ratio α2A vs α2B (higher affinity for α2A)” value in [7] was 2.0.
